In ChEMBL document CHEMBL3091333, “Design, synthesis and biological evaluation of novel 4-anilinoquinazolines with C-6 urea-linked side chains as inhibitors of the epidermal growth factor receptor” (Bioorg Med Chem, 2013):
Active and inactive are the calls of the source. The rule behind the calls is not given here.

Legend:
[1] = biological target: Epidermal growth factor receptor (Homo sapiens, UniProt P00533, L858M/T790M); experiment: Inhibition of EGFR T790M/[…] double mutant (unknown origin) expressed in baculovirus expression system using poly (Glu, Tyr) 4:1 as substrate after 60 mins by ELISA
Sequence of Epidermal growth factor receptor (Homo sapiens, UniProt P00533, L858M/T790M) (P00533 25-1210 T790M/L858M limits assumed): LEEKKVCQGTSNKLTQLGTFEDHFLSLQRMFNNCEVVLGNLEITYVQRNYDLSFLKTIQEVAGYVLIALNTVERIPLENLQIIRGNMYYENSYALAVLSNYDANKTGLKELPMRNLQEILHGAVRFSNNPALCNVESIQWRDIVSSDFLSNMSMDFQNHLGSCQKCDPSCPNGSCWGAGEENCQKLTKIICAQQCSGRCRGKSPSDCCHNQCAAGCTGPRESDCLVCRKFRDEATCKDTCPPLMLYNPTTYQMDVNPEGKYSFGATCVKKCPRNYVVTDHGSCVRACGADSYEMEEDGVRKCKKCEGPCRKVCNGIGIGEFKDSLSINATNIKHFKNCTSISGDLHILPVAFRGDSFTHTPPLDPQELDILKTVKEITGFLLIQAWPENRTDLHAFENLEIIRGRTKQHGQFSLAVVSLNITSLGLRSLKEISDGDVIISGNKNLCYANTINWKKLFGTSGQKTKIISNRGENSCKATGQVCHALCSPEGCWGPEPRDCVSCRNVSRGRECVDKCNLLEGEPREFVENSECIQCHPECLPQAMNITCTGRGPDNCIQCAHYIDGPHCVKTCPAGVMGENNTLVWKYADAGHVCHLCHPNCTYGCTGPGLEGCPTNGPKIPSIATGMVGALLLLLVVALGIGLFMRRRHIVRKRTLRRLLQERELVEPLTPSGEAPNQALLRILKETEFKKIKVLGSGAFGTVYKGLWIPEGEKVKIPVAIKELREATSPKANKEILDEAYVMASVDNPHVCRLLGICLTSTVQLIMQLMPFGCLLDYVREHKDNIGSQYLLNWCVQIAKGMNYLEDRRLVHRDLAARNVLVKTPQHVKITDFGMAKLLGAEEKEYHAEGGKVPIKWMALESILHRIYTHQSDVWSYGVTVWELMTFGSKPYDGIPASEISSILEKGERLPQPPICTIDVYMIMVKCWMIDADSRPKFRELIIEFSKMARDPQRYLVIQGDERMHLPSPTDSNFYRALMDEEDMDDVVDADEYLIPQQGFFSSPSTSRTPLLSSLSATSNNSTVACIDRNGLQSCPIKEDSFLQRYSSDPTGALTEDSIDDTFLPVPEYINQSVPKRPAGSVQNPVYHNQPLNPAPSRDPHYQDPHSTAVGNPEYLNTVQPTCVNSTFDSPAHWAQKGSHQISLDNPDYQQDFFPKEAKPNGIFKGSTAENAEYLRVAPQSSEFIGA

NCI-H1975 = experiment: Antiproliferative activity against human NCI-H1975 cells expressing EGFR T790M mutant after 72 hrs by SRB assay; assay type: functional, cell-based; conditions: NCI-H1975, 72 h
A-431 = experiment: Antiproliferative activity against human A431 cells after 72 hrs by SRB assay; assay type: functional, cell-based; conditions: A-431, 72 h
[2] = biological target: T1, Epidermal growth factor receptor (Homo sapiens, UniProt P00533); experiment: Inhibition of wild type EGFR (unknown origin) expressed in baculovirus expression system using poly (Glu, Tyr) 4:1 as substrate after 60 mins by ELISA
T1 sequence (P00533 whole entry): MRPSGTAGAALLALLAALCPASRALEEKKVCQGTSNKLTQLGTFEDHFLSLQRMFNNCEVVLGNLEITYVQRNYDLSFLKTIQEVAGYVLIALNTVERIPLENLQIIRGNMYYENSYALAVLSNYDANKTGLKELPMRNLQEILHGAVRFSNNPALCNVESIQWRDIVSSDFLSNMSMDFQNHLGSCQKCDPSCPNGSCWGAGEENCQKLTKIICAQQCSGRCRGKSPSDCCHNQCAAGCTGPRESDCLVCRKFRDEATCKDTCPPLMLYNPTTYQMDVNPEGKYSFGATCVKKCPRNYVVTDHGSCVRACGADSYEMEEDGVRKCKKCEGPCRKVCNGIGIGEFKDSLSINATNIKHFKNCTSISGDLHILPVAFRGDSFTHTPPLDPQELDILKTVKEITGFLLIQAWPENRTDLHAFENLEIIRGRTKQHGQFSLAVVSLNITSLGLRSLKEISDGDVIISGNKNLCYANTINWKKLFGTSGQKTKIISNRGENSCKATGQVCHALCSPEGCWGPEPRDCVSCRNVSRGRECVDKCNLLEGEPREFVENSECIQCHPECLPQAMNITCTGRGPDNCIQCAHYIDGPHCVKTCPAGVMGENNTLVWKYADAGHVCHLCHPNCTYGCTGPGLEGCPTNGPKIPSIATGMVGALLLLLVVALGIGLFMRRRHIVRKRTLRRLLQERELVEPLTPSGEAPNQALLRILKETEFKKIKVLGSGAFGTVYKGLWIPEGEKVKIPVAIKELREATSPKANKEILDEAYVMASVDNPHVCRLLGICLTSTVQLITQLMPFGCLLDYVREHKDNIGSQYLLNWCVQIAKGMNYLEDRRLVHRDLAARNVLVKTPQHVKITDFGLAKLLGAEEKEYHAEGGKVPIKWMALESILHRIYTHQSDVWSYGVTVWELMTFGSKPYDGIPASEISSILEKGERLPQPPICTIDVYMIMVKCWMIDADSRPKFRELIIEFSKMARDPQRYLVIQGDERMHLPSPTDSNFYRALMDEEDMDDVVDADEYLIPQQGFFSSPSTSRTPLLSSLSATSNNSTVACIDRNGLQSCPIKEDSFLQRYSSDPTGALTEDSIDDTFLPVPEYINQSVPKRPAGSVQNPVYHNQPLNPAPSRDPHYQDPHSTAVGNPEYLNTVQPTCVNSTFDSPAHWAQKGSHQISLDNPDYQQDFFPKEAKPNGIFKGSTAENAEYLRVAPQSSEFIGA

[3] = biological target: T1, Epidermal growth factor receptor; experiment: Inhibition of EGF-induced EGFR phosphorylation in human A431 cells assessed as decrease in ERK phosphorylation at 0.01 to 10 uM incubated for 1 hr prior to EGF induction measured after 10 mins by Western blotting analysis; assay type: cell-based; conditions: A-431
[4] = biological target: T1, Epidermal growth factor receptor; experiment: Inhibition of EGF-induced EGFR phosphorylation in human A431 cells incubated for 1 hr prior to EGF induction measured after 10 mins by Western blotting analysis; assay type: cell-based; conditions: A-431
[5] = biological target: T1, Epidermal growth factor receptor; experiment: Inhibition of EGF-induced EGFR phosphorylation in human A431 cells assessed as decrease in AKT phosphorylation at 0.01 to 10 uM incubated for 1 hr prior to EGF induction measured after 10 mins by Western blotting analysis; assay type: cell-based; conditions: A-431
[6] = biological target: T1, Epidermal growth factor receptor; experiment: Inhibition of EGF-induced EGFR phosphorylation in human A431 cells at 0.01 uM incubated for 1 hr prior to EGF induction measured after 10 mins by Western blotting analysis; assay type: cell-based; conditions: A-431
[7] = biological target: Macrophage-stimulating protein receptor (Homo sapiens, UniProt Q04912); experiment: Inhibition of recombinant RON (unknown origin) using poly (Glu, Tyr) 4:1 as substrate after 60 mins by ELISA
[8] = biological target: T1, Epidermal growth factor receptor; experiment: Irreversible inhibition of EGFR (unknown origin) using 5-FAM-EEPLYWSFPAKKK-CONH2 as substrate at 100 fold IC50 preincubated for 30 mins followed by 100 fold dilution measured for 2 hrs
[9] = biological target: Insulin-like growth factor 1 receptor (Homo sapiens, UniProt P08069); experiment: Inhibition of IGF1R (unknown origin) expressed in baculovirus expression system using poly (Glu, Tyr) 4:1 as substrate after 60 mins by ELISA
[10] = biological target: Mast/stem cell growth factor receptor Kit (Homo sapiens, UniProt P10721); experiment: Inhibition of recombinant c-Kit (unknown origin) using poly (Glu, Tyr) 4:1 as substrate after 60 mins by ELISA
[11] = system: Epidermal growth factor receptor (Homo sapiens), P00533 [T790M]; experiment: Inhibition of EGF-induced EGFR T790M mutant phosphorylation in human NCI-H1975 cells assessed as ERK phosphorylation at < 10 uM incubated for 1 hr prior to EGF induction measured after 10 mins by Western blotting analysis; assay type: cell-based
Sequence of Epidermal growth factor receptor (Homo sapiens), P00533 [T790M] (P00533 whole entry T790M): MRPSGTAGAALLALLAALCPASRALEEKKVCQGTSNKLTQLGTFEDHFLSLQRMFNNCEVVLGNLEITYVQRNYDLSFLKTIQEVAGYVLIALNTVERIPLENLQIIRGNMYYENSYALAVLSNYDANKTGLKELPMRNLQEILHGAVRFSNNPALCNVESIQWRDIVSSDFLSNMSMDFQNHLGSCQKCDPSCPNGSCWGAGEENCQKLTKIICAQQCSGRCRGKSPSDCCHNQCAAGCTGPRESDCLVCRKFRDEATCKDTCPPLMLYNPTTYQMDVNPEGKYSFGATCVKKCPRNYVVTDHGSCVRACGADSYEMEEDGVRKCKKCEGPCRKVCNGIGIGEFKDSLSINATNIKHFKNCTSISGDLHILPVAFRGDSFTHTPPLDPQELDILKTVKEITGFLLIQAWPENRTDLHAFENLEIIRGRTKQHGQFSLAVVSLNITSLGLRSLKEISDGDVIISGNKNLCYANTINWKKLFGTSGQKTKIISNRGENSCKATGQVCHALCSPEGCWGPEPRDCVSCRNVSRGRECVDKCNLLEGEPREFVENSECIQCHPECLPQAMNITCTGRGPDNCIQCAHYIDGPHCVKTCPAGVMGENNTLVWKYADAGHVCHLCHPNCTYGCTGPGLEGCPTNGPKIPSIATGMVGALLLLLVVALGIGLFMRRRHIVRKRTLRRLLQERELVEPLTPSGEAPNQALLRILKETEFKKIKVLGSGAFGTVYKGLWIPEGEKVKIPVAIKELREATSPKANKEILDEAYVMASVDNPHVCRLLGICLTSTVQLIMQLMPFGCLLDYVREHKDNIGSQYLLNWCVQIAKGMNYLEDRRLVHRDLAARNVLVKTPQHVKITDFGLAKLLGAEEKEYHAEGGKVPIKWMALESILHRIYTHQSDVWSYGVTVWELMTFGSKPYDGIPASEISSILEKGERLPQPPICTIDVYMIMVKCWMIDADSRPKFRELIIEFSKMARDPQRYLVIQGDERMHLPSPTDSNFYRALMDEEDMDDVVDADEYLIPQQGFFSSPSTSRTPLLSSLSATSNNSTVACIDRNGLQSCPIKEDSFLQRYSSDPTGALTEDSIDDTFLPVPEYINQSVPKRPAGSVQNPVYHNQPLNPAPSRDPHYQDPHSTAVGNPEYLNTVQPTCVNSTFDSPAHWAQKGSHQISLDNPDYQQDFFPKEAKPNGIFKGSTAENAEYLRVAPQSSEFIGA

[12] = biological target: Fibroblast growth factor receptor 1 (Homo sapiens, UniProt P11362); experiment: Inhibition of FGFR1 (unknown origin) expressed in baculovirus expression system using poly (Glu, Tyr) 4:1 as substrate after 60 mins by ELISA
[13] = biological target: Receptor tyrosine-protein kinase erbB-2 (Homo sapiens, UniProt P04626); experiment: Inhibition of ErbB2 (unknown origin) expressed in baculovirus expression system using poly (Glu, Tyr) 4:1 as substrate after 60 mins by ELISA
[14] = system: Epidermal growth factor receptor (Homo sapiens), P00533 [T790M]; experiment: Inhibition of EGF-induced EGFR T790M mutant phosphorylation in human NCI-H1975 cells assessed as AKT phosphorylation at < 10 uM incubated for 1 hr prior to EGF induction measured after 10 mins by Western blotting analysis; assay type: cell-based
[15] = biological target: Platelet-derived growth factor receptor beta (Homo sapiens, UniProt P09619); experiment: Inhibition of recombinant PDGFR-beta (unknown origin) using poly (Glu, Tyr) 4:1 as substrate after 60 mins by ELISA
Sequence of Platelet-derived growth factor receptor beta (P09619 whole entry): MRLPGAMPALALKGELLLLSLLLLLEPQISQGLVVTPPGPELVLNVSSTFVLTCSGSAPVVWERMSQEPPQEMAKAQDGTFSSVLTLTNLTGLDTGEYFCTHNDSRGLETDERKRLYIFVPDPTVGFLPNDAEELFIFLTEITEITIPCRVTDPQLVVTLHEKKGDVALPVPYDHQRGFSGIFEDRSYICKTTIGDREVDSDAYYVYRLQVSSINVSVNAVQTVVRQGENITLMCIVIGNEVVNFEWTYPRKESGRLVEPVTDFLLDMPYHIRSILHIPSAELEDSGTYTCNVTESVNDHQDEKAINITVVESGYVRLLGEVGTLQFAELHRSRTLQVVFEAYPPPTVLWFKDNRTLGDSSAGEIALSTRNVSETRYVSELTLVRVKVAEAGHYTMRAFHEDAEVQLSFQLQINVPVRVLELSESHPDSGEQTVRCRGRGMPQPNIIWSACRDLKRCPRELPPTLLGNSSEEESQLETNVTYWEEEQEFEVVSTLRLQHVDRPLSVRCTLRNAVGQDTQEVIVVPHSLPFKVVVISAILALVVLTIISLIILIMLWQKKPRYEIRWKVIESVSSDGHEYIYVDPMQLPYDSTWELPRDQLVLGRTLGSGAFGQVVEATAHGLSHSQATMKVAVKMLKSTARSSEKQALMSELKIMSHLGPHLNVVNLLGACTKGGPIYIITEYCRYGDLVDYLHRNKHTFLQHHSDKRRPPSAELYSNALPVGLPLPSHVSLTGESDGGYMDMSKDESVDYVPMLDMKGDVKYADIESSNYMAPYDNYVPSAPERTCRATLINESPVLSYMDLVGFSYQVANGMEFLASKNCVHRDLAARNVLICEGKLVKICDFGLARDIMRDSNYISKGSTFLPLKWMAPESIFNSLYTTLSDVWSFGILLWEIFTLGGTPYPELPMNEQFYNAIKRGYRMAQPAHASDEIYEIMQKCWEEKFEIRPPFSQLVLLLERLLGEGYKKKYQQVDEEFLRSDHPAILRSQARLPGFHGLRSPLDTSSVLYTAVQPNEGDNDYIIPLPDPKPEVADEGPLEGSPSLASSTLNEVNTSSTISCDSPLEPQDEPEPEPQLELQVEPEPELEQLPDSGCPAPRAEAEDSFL

[16] = biological target: Proto-oncogene tyrosine-protein kinase receptor Ret (Homo sapiens, UniProt P07949); experiment: Inhibition of recombinant RET (unknown origin) using poly (Glu, Tyr) 4:1 as substrate after 60 mins by ELISA
Ephrin type-A receptor 2 = Ephrin type-A receptor 2 (Homo sapiens, UniProt P29317); experiment: Inhibition of recombinant EPHA2 (unknown origin) using poly (Glu, Tyr) 4:1 as substrate after 60 mins by ELISA
[17] = biological target: Platelet-derived growth factor receptor alpha (Homo sapiens, UniProt P16234); experiment: Inhibition of recombinant PDGFR-alpha (unknown origin) using poly (Glu, Tyr) 4:1 as substrate after 60 mins by ELISA
[18] = biological target: Tyrosine-protein kinase ABL1 (Homo sapiens, UniProt P00519); experiment: Inhibition of recombinant ABL (unknown origin) using poly (Glu, Tyr) 4:1 as substrate after 60 mins by ELISA
[19] = system: Epidermal growth factor receptor (Homo sapiens), P00533 [T790M]; experiment: Inhibition of EGF-induced EGFR T790M mutant autophosphorylation in human NCI-H1975 cells at 10 uM incubated for 1 hr prior to EGF induction measured after 10 mins by Western blotting analysis; assay type: cell-based
[20] = biological target: Vascular endothelial growth factor receptor 1 (Homo sapiens, UniProt P17948); experiment: Inhibition of recombinant FLT-1 (unknown origin) using poly (Glu, Tyr) 4:1 as substrate after 60 mins by ELISA
[21] = biological target: Receptor tyrosine-protein kinase erbB-4 (Homo sapiens, UniProt Q15303); experiment: Inhibition of recombinant ErbB4 (unknown origin) using poly (Glu, Tyr) 4:1 as substrate after 60 mins by ELISA
[22] = biological target: Vascular endothelial growth factor receptor 2 (Homo sapiens, UniProt P35968); experiment: Inhibition of KDR (unknown origin) expressed in baculovirus expression system using poly (Glu, Tyr) 4:1 as substrate after 60 mins by ELISA

Row | Compound | IC50 [1] | IC50 (NCI-H1975) | IC50 (A-431) | IC50 [2] | further results
1 | CN(C)CCCN(C)C(=O)Nc1cc2c(Nc3ccc(F)c(Cl)c3)ncnc2cc1O[C@H]1CCOC1 | 5.26 µM | 3.3 µM | 0.2 µM | 0.464 µM | –
2 | O=C(NCCO)Nc1cc2c(Nc3ccc(F)c(Cl)c3)ncnc2cc1O[C@H]1CCOC1 | – | 17.6 µM | 0.598 µM | – | –
3 | O=C(Nc1cc2c(Nc3ccc(F)c(Cl)c3)ncnc2cc1O[C@H]1CCOC1)N1CCC(N2CCCC2)CC1 | 1.59 µM | 9.6 µM | 0.317 µM | 0.265 µM | –
4 | O=C(Nc1cc2c(Nc3ccc(F)c(Cl)c3)ncnc2cc1O[C@H]1CCOC1)N1CC(O)C1 | 1.42 µM | 32.2 µM | 1.93 µM | 0.543 µM | –
5 | COCCCNC(=O)Nc1cc2c(Nc3ccc(F)c(Cl)c3)ncnc2cc1O[C@H]1CCOC1 | 1.66 µM | 22.7 µM | 4.1 µM | 0.197 µM | –
6 | COC(=O)/C=C/CNC(=O)Nc1cc2c(Nc3ccc(F)c(Cl)c3)ncnc2cc1O[C@H]1CCOC1 | 0.265 µM | 9.6 µM | 1.41 µM | 0.404 µM | –
7 | C#CCNC(=O)Nc1cc2c(Nc3ccc(F)c(Cl)c3)ncnc2cc1O[C@H]1CCOC1 | 0.374 µM | 14.8 µM | 3.73 µM | 0.232 µM | –
8 | O=C(Nc1cc2c(Nc3ccc(F)c(Cl)c3)ncnc2cc1O[C@H]1CCOC1)N1CC(F)C1 | 2.17 µM | 13.4 µM | 5.78 µM | 0.967 µM | –
9 | CN(C)C/C=C/C(=O)Nc1cc2c(Nc3ccc(F)c(Cl)c3)ncnc2cc1O[C@H]1CCOC1 [AFATINIB] | – | 0.148 µM | – | – | –
10 | O=C(Nc1cc2c(Nc3ccc(F)c(Cl)c3)ncnc2cc1O[C@H]1CCOC1)N1CCC(F)(F)C1 | 3.12 µM | 4.5 µM | 1.48 µM | 1.58 µM | –
11 | O=C(Nc1cc2c(Nc3ccc(F)c(Cl)c3)ncnc2cc1O[C@H]1CCOC1)N1CCC(F)(F)CC1 | 5.31 µM | 32.3 µM | 1.85 µM | 0.859 µM | –
12 | CN1CCN(C(=O)Nc2cc3c(Nc4ccc(F)c(Cl)c4)ncnc3cc2O[C@H]2CCOC2)CC1 | 5.58 µM | 12.3 µM | 0.675 µM | 0.464 µM | –
13 | O=C(Nc1cc2c(Nc3ccc(F)c(Cl)c3)ncnc2cc1O[C@H]1CCOC1)N1CCC2(CC1)OCCO2 | 5.19 µM | 32.2 µM | 2.18 µM | 1.72 µM | –
14 | O=C(NCCN1CCCCC1)Nc1cc2c(Nc3ccc(F)c(Cl)c3)ncnc2cc1O[C@H]1CCOC1 | 0.447 µM | 3.2 µM | 0.116 µM | 0.165 µM | –
15 | O=C(Nc1cc2c(Nc3ccc(F)c(Cl)c3)ncnc2cc1O[C@H]1CCOC1)N1CCC(F)CC1 | 1.82 µM | 33.3 µM | 3.04 µM | 0.699 µM | –
16 | CN(C)CCCNC(=O)Nc1cc2c(Nc3ccc(F)c(Cl)c3)ncnc2cc1O[C@H]1CCOC1 | 0.276 µM | 6.3 µM | 0.226 µM | 0.024 µM | inhibition [3]: Active; inhibition [4]: Dose-dependent effect; inhibition [5]: Active; inhibition [6]: Active
17 | COC(CCNC(=O)Nc1cc2c(Nc3ccc(F)c(Cl)c3)ncnc2cc1O[C@H]1CCOC1)OC | 0.4 µM | > 100 µM | 22 µM | 0.544 µM | –
18 | O=C(Nc1cc2c(Nc3ccc(F)c(Cl)c3)ncnc2cc1O[C@H]1CCOC1)N1CCCC(F)(F)C1 | 1.89 µM | 43.2 µM | 0.935 µM | 0.884 µM | –
19 | O=C(NCCN1CCCC1)Nc1cc2c(Nc3ccc(F)c(Cl)c3)ncnc2cc1O[C@H]1CCOC1 | 0.061 µM | 5.3 µM | 0.247 µM | 0.068 µM | IC50 [7]: 6.1 µM; inhibition [8]: Active; IC50 [9]: > 10 µM; IC50 [10]: > 10 µM; inhibition [11]: inactive; IC50 [12]: > 10 µM; IC50 [13]: 0.112 µM; inhibition [14]: inactive; IC50 [15]: > 10 µM; IC50 [16]: 0.223 µM; IC50 (Ephrin type-A receptor 2): > 10 µM; IC50 [17]: > 10 µM; IC50 [18]: > 10 µM; inhibition [19]: Active; IC50 [20]: > 10 µM; IC50 [21]: 0.012 µM; IC50 [22]: > 10 µM
20 | CN(C)CCN(C)C(=O)Nc1cc2c(Nc3ccc(F)c(Cl)c3)ncnc2cc1O[C@H]1CCOC1 | 0.677 µM | 8.2 µM | 0.45 µM | 0.281 µM | –
21 | CCN(CC)CCNC(=O)Nc1cc2c(Nc3ccc(F)c(Cl)c3)ncnc2cc1O[C@H]1CCOC1 | 2.24 µM | 5.2 µM | 0.249 µM | 0.365 µM | –
22 | CCN(CC)CCN(C)C(=O)Nc1cc2c(Nc3ccc(F)c(Cl)c3)ncnc2cc1O[C@H]1CCOC1 | 0.392 µM | 8.3 µM | 0.481 µM | 0.505 µM | –
23 | O=C(Nc1cc2c(Nc3ccc(F)c(Cl)c3)ncnc2cc1O[C@H]1CCOC1)N1CCN(CCO)CC1 | 4.21 µM | 18.2 µM | 1.13 µM | 0.331 µM | –
24 | O=C(NCCN1CCOCC1)Nc1cc2c(Nc3ccc(F)c(Cl)c3)ncnc2cc1O[C@H]1CCOC1 | 0.049 µM | 5.3 µM | 0.307 µM | 0.082 µM | inhibition [11]: inactive; inhibition [14]: inactive; inhibition [19]: Active
25 | CS(=O)(=O)CCNC(=O)Nc1cc2c(Nc3ccc(F)c(Cl)c3)ncnc2cc1O[C@H]1CCOC1 | 0.672 µM | 35.2 µM | 1.57 µM | 0.041 µM | –
26 | O=C(Nc1cc2c(Nc3ccc(F)c(Cl)c3)ncnc2cc1O[C@H]1CCOC1)N1CCC(CCO)CC1 | 2.94 µM | 25.3 µM | 0.759 µM | 0.304 µM | –
27 | COCCNC(=O)Nc1cc2c(Nc3ccc(F)c(Cl)c3)ncnc2cc1O[C@H]1CCOC1 | 3.56 µM | 8.3 µM | 0.387 µM | 0.479 µM | –
28 | CCN(CC)CCCNC(=O)Nc1cc2c(Nc3ccc(F)c(Cl)c3)ncnc2cc1O[C@H]1CCOC1 | 3.06 µM | 4.3 µM | 0.196 µM | 0.032 µM | IC50 [7]: > 10 µM; inhibition [3]: Active; IC50 [9]: > 10 µM; IC50 [10]: > 10 µM; inhibition [4]: Dose-dependent effect; IC50 [12]: > 10 µM; IC50 [13]: 0.078 µM; IC50 [15]: > 10 µM; IC50 [16]: 0.347 µM; inhibition [5]: Active; IC50 (Ephrin type-A receptor 2): > 10 µM; IC50 [17]: > 10 µM; IC50 [18]: 0.566 µM; inhibition [6]: Active; IC50 [20]: > 10 µM; IC50 [21]: 0.008 µM; IC50 [22]: > 10 µM
29 | CN(C)CCNC(=O)Nc1cc2c(Nc3ccc(F)c(Cl)c3)ncnc2cc1O[C@H]1CCOC1 | 2.08 µM | 4.7 µM | 0.806 µM | 0.635 µM | –
